Values of other authors, collected in patent EP2136625B1, “USE OF A MEANS FOR THE SI[…] WEEDS, ALGAE, PHYTOPATHOGENIC BACTERIA, FUNGI, VIRUSES AND VIROIDS” (priority 2007, dated 2008).

Conditions: Methode EPA-FIFRA, Sonnenbarsch, 46 d

Structure (SMILES): CCCCCCCCCC[N+](C)(C)CCCCCCCCCC.[Cl-] [DDAC, Didecyldimethylammoniumchlorid]
- BCF: 81
